Test results taken from article PMC10035370, “Targeting Tumor Angiogenesis with the Selective VEGFR-3 Inhibitor EVT801 in Combination with Cancer Immunotherapy” (Cancer Research Communications, 2022).

Legend:
tubule formation = assay: Mouse aortic ring assay stimulated by a 4T1 tumor fragment; format: cell-based; details: 300 nM, day 8
Protocol: Neo-angiogenesis was studied in vitro by culturing rings of mouse thoracic aorta in 3-dimensional collagen gels, as previously described (2), but the mouse serum was replaced by a piece of 4T1 tumor. Briefly, 1 mm-long aortic ring-shaped fragments of 9-week old C57Bl/6J mice, and 1 mm^3 4T1 tumor pieces resected 21 days after orthotopic injection in mammary fat pad of BALB/c mice were embedded in a rat tail interstitial collagen gel (1.5 mg/mL). It was prepared by mixing 7.5 volumes of 2 mg/mL collagen (Collagen R, Serva), 1 volume of 10 x minimum essential medium (MEM, Life Technologies Ltd.), 1.5 volumes of NaHCO3 (15.6 mg/mL), and 0.1 volume 1 M NaOH to adjust the pH to 7.4. The collagen gels containing the aortic rings were polymerized in cylindrical agarose wells, and kept in triplicate at 37 °C in 60 mm diameter Petri dishes (bacteriological polystyrene; Falcon, Becton Dickinson). Each dish contained 6 mL of MCDB131 (Life Technologies Ltd.) supplemented with 25 mM NaHCO3, 1 % glutamine, 100 U/mL penicillin, and 100 µg/mL streptomycin. The cultures were kept at 37 °C in a humidified environment for 8 days and examined every other day with a Nikon microscope at appropriate magnification. […] Quantification of pseudo-tubules was performed at day 8 using an automated computer-assisted image analysis system (Morpho Expert V2.50, Explora Nova, La Rochelle, France). […]

VEGFR-1 = biological target: T1, VEGFR-1 (Homo sapiens, UniProt P17948); assay: Cellular autophosphorylation assay, HEK293 cells transiently expressing VEGFR-1; format: cell-based
T1 construct: expressed in transfected cells; host or cells: HEK293T
T1 sequence (P17948 27-1338): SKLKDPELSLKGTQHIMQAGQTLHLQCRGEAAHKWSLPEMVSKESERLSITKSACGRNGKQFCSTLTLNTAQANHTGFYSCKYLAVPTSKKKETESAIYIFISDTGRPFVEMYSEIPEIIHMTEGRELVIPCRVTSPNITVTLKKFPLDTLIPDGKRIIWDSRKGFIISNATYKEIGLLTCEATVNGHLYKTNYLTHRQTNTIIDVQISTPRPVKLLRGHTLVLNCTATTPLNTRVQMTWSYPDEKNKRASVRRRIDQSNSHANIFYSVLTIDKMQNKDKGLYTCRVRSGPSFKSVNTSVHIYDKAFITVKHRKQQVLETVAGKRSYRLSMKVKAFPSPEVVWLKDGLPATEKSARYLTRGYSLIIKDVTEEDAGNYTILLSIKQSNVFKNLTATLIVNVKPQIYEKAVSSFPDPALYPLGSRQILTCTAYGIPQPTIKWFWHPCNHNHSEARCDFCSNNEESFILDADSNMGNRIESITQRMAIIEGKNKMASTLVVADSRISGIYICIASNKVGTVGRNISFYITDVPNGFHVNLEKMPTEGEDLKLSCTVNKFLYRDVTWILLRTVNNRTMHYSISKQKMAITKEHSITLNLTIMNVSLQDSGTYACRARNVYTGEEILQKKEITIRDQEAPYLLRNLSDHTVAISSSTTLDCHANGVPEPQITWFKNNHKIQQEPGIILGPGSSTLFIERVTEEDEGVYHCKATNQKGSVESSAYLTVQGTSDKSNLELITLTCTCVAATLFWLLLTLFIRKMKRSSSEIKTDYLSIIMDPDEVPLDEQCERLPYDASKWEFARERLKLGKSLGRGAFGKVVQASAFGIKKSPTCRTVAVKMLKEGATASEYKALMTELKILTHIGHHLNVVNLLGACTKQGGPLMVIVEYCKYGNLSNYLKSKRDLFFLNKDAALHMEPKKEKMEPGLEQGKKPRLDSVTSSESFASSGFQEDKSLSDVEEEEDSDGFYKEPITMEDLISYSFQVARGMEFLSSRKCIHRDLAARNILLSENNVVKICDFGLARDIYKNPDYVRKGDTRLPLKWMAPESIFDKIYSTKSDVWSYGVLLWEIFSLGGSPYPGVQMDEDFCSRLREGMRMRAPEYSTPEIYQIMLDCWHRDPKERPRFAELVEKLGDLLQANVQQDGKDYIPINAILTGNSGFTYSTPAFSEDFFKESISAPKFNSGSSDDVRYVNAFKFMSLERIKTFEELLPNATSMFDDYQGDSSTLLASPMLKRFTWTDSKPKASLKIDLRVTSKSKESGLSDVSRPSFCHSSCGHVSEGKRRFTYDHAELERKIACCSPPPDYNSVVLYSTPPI
Protocol: Transfection of HEK293T cells and Ba/F3 cells with VEGFR-1-Flag, VEGFR-2-Flag or VEGFR-3-Flag expression constructs was performed using Fugene-6 (Roche) as per manufacturer’s protocol. Briefly, Fugene-6 was pre-incubated with Opti-Mem (Gibco) before adding DNA. After 24 h, media was replaced with serum-free culture media containing 0.2 % BSA. On the next day, cells were incubated for 1 h in 1 mM orthovanadate, harvested, dissociated and distributed at 4 x 10^5 cells in 5 mL for HEK-VEGFR-1 and HEK-VEGFR-3, and 5 x 10^4 cells per 5 mL for HEK VEGFR-2 in the presence of EVT801 or SAR401849. After 30 min, the reaction was stopped by the addition of cold PBS supplemented with 1 mM orthovanadate. Cells were then lysed with 150 μl of RIPA buffer for 15 min at 4°C, then centrifuged for 10 min at 10,000 g. Supernatants (75 μl) were distributed in duplicate on 96 well plates that were precoated with the anti-flag, and left for 1 h at room temperature. After 3 washes, the anti-phosphotyrosine conjugated to the HRP was added and incubated for 1 h at room temperature. Wells were then washed 3 times with TBS buffer containing 0.5 % Tween-20 and 2 mM MgCl2. The reaction was stopped with 50 μL of 2 N H2SO4, and the signal was read with Envision at the wavelengths of 485 nm and 530 nm.

VEGFR-3 = VEGFR-3 (Homo sapiens, UniProt P35916); assay: Biochemical kinase assay (in vitro assay), VEGFR-3; design: expressed in transfected cells; host or cells: HEK293T; details: read-out: IC50 in biochemical assays, VEGFR-3
Sequence of VEGFR-3 (P35916 25-1363): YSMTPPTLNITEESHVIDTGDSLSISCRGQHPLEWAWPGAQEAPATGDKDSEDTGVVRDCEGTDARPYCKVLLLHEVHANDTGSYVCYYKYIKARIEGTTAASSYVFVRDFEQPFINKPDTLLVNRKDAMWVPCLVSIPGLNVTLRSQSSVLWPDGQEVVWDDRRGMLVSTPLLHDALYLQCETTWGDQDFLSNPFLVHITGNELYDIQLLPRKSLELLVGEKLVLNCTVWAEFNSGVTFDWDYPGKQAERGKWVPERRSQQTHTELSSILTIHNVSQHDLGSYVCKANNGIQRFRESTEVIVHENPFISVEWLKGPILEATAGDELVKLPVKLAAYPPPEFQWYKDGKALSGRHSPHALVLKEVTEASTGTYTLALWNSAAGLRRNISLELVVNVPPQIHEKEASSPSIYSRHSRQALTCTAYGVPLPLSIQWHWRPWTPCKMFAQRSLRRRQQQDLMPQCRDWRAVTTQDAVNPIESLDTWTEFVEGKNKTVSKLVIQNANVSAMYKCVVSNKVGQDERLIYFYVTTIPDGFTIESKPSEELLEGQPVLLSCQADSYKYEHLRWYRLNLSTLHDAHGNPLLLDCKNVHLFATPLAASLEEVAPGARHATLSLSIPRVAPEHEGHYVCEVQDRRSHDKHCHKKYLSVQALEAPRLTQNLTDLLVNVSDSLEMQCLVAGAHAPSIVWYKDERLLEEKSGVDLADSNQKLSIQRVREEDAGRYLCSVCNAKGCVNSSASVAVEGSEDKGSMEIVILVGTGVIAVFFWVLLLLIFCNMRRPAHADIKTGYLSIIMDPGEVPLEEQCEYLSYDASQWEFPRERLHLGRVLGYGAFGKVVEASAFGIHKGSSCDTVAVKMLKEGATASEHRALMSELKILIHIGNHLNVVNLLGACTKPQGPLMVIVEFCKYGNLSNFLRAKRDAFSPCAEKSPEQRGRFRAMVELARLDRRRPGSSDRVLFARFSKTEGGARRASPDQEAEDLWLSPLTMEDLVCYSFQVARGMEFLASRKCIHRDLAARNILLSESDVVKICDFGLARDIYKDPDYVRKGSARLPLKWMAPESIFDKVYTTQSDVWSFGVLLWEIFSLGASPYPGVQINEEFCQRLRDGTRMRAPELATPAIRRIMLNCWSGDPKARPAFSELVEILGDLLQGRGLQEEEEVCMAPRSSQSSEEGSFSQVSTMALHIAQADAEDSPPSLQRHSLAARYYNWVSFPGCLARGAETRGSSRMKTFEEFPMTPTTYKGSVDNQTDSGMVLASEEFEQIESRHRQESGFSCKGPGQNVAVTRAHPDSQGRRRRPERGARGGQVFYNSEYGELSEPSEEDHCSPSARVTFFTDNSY
Protocol: Sigma protein kinase assay kits were used. 125 μL per well of Poly-Glu-Tyr (PGT) solution (250 μg/mL of PGT in PBS without Ca^2+, Mg^2+ and sodium bicarbonate) was added in a 96-well plate and overnight incubation was performed at 37 °C. The day after, coating solution was removed and wells were washed with 300 μL of PBS-Tween-20 0.05 %. The washing buffer was removed and wells were dried for 2 h at 37 °C. 90 μL of the kinase buffer was supplemented with ATP (30 μM for VEGFR-1 and VEGFR-3, and 15 μM for VEGFR-2), and the compound (EVT801 or SAR401849 at the indicated concentration or 1 % DMSO for the vehicle control). The phosphorylation reaction was initiated by the addition of 20 μL of kinase buffer without ATP supplemented with 100 ng of the tyrosine kinase (or without tyrosine kinase as control). Plates were incubated with gentle agitation at room temperature for 30 min. After 3 washes with 300 μL of washing buffer, 100 μL of phosphotyrosine specific monoclonal antibody conjugated to HRP (1:30,000) was added onto the phosphorylated PGT. Plates were incubated for 30 min at room temperature under gentle agitation. Then, 3 washes with 300 μL of washing buffer were performed. […] After 7 min at room temperature, the reaction was stopped by addition of 100 μL of […], and absorbance was determined with an Endvision spectrophotometer at 492 nm.

BNL-R3 tumors = assay: VEGFR3 expressing BNL tumor model (BNL-R3); format: in vivo, mice
Protocol: A total number of 60 female BALB/c mice were injected subcutaneously on the flank with 2 x 10^6 cells in 250 μL PBS buffer/growth factor reduced Matrigel®. Mice were then kept in a post-operative cabinet at 28 °C until complete recovery. Assuming an ovoid form, tumor volume in mm3 was calculated using digital callipers according to the following formula: V = 0.52 x (width)² x length. On day 7, mice were randomized into 4 groups of 11 mice and 1 group with 16 mice, according to mean tumor volume via cage equalizer software. Subsequently, tumor volume was measured on days 11, 13, 15, 18, 19 and 21 following tumor cell injection. The selected groups received vehicle or EVT801 orally in a volume of 10 mL/kg. Mice body weight was measured daily before dosing. On the day of termination, mice were anaesthetized to facilitate 500 μL blood withdrawal by puncture of the jugular vein. Three mice per group and per time point (i.e., 0.5, 2, 4 and 24 h after the last dosing) were allocated for pharmacokinetic study. Spleens of 3 mice per group were collected, and immune cell populations were separated from dissociated splenocytes via MACS, and subjected to flow cytometry analysis.

CCn1c(N)c(-c2ncc[nH]2)c(=O)c2ccc(C#C[C@@](C)(O)COC)nc21 [EVT801]
tubule formation (tubule length) (tubule formation): prevents tumor-induced tubule formation almost completely | maximum inhibition of VEGFR-1 (VEGFR-1; HEK293T cellular autophosphorylation assay): below 50% | IC50 (VEGFR-1; HEK293 cells, read-out: IC50 in cellular assays, VEGFR-1 autophosphorylation): 2.13 µM | IC50 (VEGFR-3): 0.011 µM | T/C ratio, tumor growth (BNL-R3 tumors; 10 mg/kg twice per day): 31% | decrease of number of vessels (BNL-R3 tumors; 10 mg/kg twice per day): 60% | decrease of total vessel surface (BNL-R3 tumors; 10 mg/kg twice per day): 35% | T/C ratio, tumor growth (BNL-R3 tumors; 30 mg/kg twice per day): 10% | decrease of number of vessels (BNL-R3 tumors; 30 mg/kg twice per day): 83% | decrease of total vessel surface (BNL-R3 tumors; 30 mg/kg twice per day): 29% | tumor hypoxia (BNL-R3 tumors; both doses, 10 and 30 mg/kg twice per day): decreased hypoxia | infiltration of CD3+ cells in the tumor (BNL-R3 tumors; endpoint): increased
